Results taken from US20030003114A1, “Enzyme-based anti-cancer compositions and methods” (priority 2001, published 2003).

Tests used:
[1] = tested on: 24 JK murine sarcoma cells; test: Syngeneic tumor model, 24 JK murine sarcoma in C57BL/6 mice; set-up: anti-tumor effectiveness: dose or concentration left out as unconfirmed
Description: In the case where a hexosaminidase is tested for anti-tumor activity on murine tumor cells or tissues, a syngeneic tumor model is used. In this model, tumor cells or tissues are implanted in C57BL/6 mice. As in the SCID mouse model described above, the implanted tumors are allowed to grow to a size of approximately 50 to 100 mm^3 before various amounts of the hexosaminidase are administered to the animal, by any of the means described above. The decrease in tumor size or, preferably, elimination of the tumor from the mouse, is subsequently observed.
In both the SCID and C57BL/6 models described above, the anti-tumor activity of a hexosaminidase is compared to the anti-tumor activity of a known anti-tumor agent. For example, mice containing tumors are treated with doxorubicin. A suitable dose of doxorubicin is 5 mg per kg of body weight of the mice.
A syngeneic tumor model, C57BL/6 mice carrying implanted 24 JK murine sarcoma cells, was used in these studies. The cells were injected subcutaneously into the mouse flank. Five days later, 5 units of chitinase was injected intraperitoneally (IP) into the mouse. Into another mouse was injected 5 mg doxorubicin per kilogram of mouse weight IP on days 5, 7 and 9. Into a third mouse was injected saline on day 5 (i.e., negative control).

[2] = tested on: Moderately differentiated adenocarcinoma from human colon; test: Human colon cancer xenograft in SCID mice, tumor size; assay type: in vivo; details: 5 units injected into the tumor (day 1), FIG. 2
Description: (§1) The effect of hexosaminidases on survival of tumor cells is also tested by administering hexosaminidases to experimental animals that have various tumors. Preferably, the tumors are human tumors or cancer xenograft tissues and the experimental animal is a SCID mouse. Good results have been obtained by transplanting tumor cells or tissues subcutaneously in the animal or behind the fat pad of the mouse. After the tumor cells or tissues are transplanted into the animal, the tumors cells grow and divide. When the tumors reach a visible size (e.g., 0.5-0.8 cm^3) in the SCID mice, a hexosaminidase is dissolved in PBS and various amounts of the hexosaminidase are injected into the tumor (i.e., intratumor injection), injected intraperitoneally (IP) into the animal, or intravenously (IV) into the animal. Single or multiple injections are used. The size of the tumor is subsequently measured to determine the effect of the enzyme on tumor growth and survival. A decrease in size of the tumors is indicative of anti-tumor activity of the hexosaminidase. Preferably, administration of the hexosaminidase results in a significant size reduction of the tumor. […]
Moderately differentiated adenocarcinoma from human colon was obtained from patients as a biopsy sample and a 0.1 cm^3 piece of the biopsy was implanted into SCID mice. […] Subsequently, the size of the tumors was measured daily.

[3] = Chitinase levels in blood of mice after different routes of administration (4-mu-chitotrioside assay of plasma); assay type: in vivo; details: mouse
Description: Thirty-five mg of chitinase (Sigma C-6139) was dissolved in 1.5 ml of PBS. One-half ml of the chitinase solution was injected into each of 3 mice. One mouse was injected intraperitoneally (IP), one was injected intravenously (IV), and one mouse was injected subcutaneously (SC). A fourth mouse was injected with saline as a control. At various times after injection, 15-20 μl of blood was taken from the tail vein of each mouse and immediately mixed with a sodium-EDTA solution (pH 7.4). The cells were centrifuged from the blood and 5 μl of plasma was used in a chitinase assay. In the chitinase assay, 4-methylumbelliferyl-β-D-N, N′, N″-triacetyl-chitotriose (4-mu-chitotrioside) was used as the substrate for chitinase. The plasma sample, in 100 μl of saline, was mixed with 100 μl of 22 μM 4-mu-chitotrioside solution in 0.2 M citric acid buffer (pH 5.2) and incubated in a 37° C. water bath for 15 min. At the end of the incubation, 3.0 ml of 0.3 M glycine buffer (pH 10.6) was added to the mixture to stop the reaction. The fluorescence of the solution at 460 nm was then measured after excitation at 355 nm.

Large cell lymphoma = test: Human lymphoma xenograft in SCID mice, tumor size; assay type: in vivo; details: 5 units injected into the tumor (day 1), over a period of 7 days, FIG. 2
Description: as §1
Large cell lymphoma was obtained from patients as a biopsy sample and a 0.1 cm^3 piece of the biopsy was implanted into SCID mice. […] Subsequently, the size of the tumors was measured daily.

[4] = tested on: Poorly differentiated carcinoma from human bladder; test: Human bladder cancer xenograft in SCID mice, tumor size; assay type: in vivo; details: 5 units injected into the tumor (day 1)
Description: as §1
Poorly differentiated carcinoma from human bladder was obtained from patients as a biopsy sample and a 0.1 cm^3 piece of the biopsy was implanted into SCID mice. […] Subsequently, the size of the tumors was measured daily.

lung cancer cells = test: Cultured tumor cells treated with chitinase, cellular damage (electron micrographs); assay type: cell-based, human; details: within hours of treatment, ultimately leading to cell death
[5] = tested on: Moderately differentiated squamous cell carcinoma from human lung; test: Human lung cancer xenograft in SCID mice, tumor size; assay type: in vivo
Description: as §1
Moderately differentiated squamous cell carcinoma from human lung was obtained from patients as a biopsy sample and a 0.1 cm^3 piece of the biopsy was implanted into SCID mice. […] Subsequently, the size of the tumors was measured daily. […]

melanoma cells = test: Cultured tumor cells treated with chitinase, cellular damage (electron micrographs); assay type: cell-based, human; details: within hours of treatment, ultimately leading to cell death
[6] = tested on: Ductal carcinoma from breast; test: Human breast cancer xenograft in SCID mice, tumor size; assay type: in vivo; details: 5 units injected into the tumor (day 1)
Description: as §1
Ductal carcinoma from breast was obtained from patients as a biopsy sample and a 0.1 cm^3 piece of the biopsy was implanted into SCID mice. […] Subsequently, the size of the tumors was measured daily.

[7] = tested on: spleen cells from a normal mouse; test: MTT dye reduction viability assay, normal cells; assay type: cell-based; details: concentrations up to 1.0 units per ml of culture medium, 3 days, FIG. 1
From the text: Different concentrations of the hexosaminidases are used. […] One method is the MTT assay.

[8] = tested on: breast cancer MCF-7 cells; test: Cultured tumor cells treated with chitinase, cellular damage (electron micrographs); assay type: cell-based, human; details: within hours of treatment, ultimately leading to cell death
[9] = tested on: prostate cancer LNCaP cells; test: Cultured tumor cells treated with chitinase, cellular damage; assay type: cell-based, human; details: within hours of treatment, ultimately leading to cell death
[10] = tested on: Moderately differentiated adenocarcinoma from prostate; test: Human prostate cancer xenograft in SCID mice, tumor size; assay type: in vivo; details: 5 units injected into the tumor (day 1), FIG. 2
Description: as §1
Moderately differentiated adenocarcinoma from prostate was obtained from patients as a biopsy sample and a 0.1 cm^3 piece of the biopsy was implanted into SCID mice. […] Subsequently, the size of the tumors was measured daily.

Malignant melanoma = test: Human malignant melanoma xenograft in SCID mice, tumor size; assay type: in vivo; details: 5 units injected into the tumor (day 1)
Description: as §1
Malignant melanoma was obtained from patients as a biopsy sample and a 0.1 cm^3 piece of the biopsy was implanted into SCID mice. […] Subsequently, the size of the tumors was measured daily.

[11] = Observation of treated mice for visible signs of systemic toxicity; assay type: in vivo; details: general statement; high chitinase levels do not appear to cause toxicity in normal tissues
From the text: Such toxicity is compared with toxicity that is present in control animals, animals administered doxorubicin for example.

[12] = tested on: human oral carcinoma KB cells; details: 3 days culture at 37° C., MTT, FIG. 1
Description: Good results have been obtained by testing the effect of hexosaminidases on the viability of cultured normal and tumor cells is tested by culturing normal cells (e.g., spleen cells from a mouse) and tumor cells (e.g., human oral carcinoma KB cells) in vitro and then adding various concentrations of the hexosaminidase to the cells. Different concentrations of the hexosaminidases are used. At various times after addition of the hexosaminidase, the viability of the cells is determined using one of a variety of methods. One method is the MTT assay. In this assay, cells are exposed to MTT, 3-(4,5-dimethylthiazol-2-yl)2,5-diphenyltetrazolium bromide, which is taken into the cells and reduced by mitochondrial dehydrogenase to a purple formazan, a large molecule which is unable to pass through intact cell membranes, and therefore accumulates in healthy cells. The ability of cells to reduce MTT is an indication of mitochondrial integrity and activity, which is interpreted as a measure of viability.
Fifty thousand spleen cells from a normal mouse, or human oral carcinoma KB cells were cultured. […] This product was dissolved in a solvent (95% ethanol:DMSO; 1:1), added to the cells and the absorbance (540 nm) was determined. The absorbance of the formazan is linearly proportional to the number of viable cells in the culture.

[13] = tested on: Merkel cell cancer (neuroendocrine skin cancer); test: Merkel cell cancer xenograft in SCID mice, tumor size; assay type: in vivo, human; details: 5 units injected into the tumor (day 1)
Description: as §1
Merkel cell cancer (neuroendocrine skin cancer) was obtained from patients as a biopsy sample and a 0.1 cm^3 piece of the biopsy was implanted into SCID mice. […] Subsequently, the size of the tumors was measured daily.

[14] = tested on: Adenocarcinoma from ovaries; test: Human ovarian cancer xenograft in SCID mice, tumor size; assay type: in vivo; details: 5 units injected into the tumor (day 1)
Description: as §1
Adenocarcinoma from ovaries was obtained from patients as a biopsy sample and a 0.1 cm^3 piece of the biopsy was implanted into SCID mice. […] Subsequently, the size of the tumors was measured daily.

fibrosarcoma = test: Human fibrosarcoma xenograft in SCID mice, tumor size; assay type: in vivo; details: 5 units injected into the tumor (day 1)
Description: as §1
A fibrosarcoma was obtained from patients as a biopsy sample and a 0.1 cm^3 piece of the biopsy was implanted into SCID mice. […] Subsequently, the size of the tumors was measured daily.

[15] = tested on: LNCaP prostate cancer cells; test: LNCaP prostate cancer cell tumors in SCID mice; assay type: in vivo, human
Description: The effect of hexosaminidases on survival of tumor cells is also tested by administering hexosaminidases to experimental animals that have various tumors. Preferably, the tumors are human tumors or cancer xenograft tissues and the experimental animal is a SCID mouse. Good results have been obtained by transplanting tumor cells or tissues subcutaneously in the animal or behind the fat pad of the mouse. After the tumor cells or tissues are transplanted into the animal, the tumors cells grow and divide. When the tumors reach a visible size (e.g., 0.5-0.8 cm^3) in the SCID mice, a hexosaminidase is dissolved in PBS and various amounts of the hexosaminidase are injected into the tumor (i.e., intratumor injection), injected intraperitoneally (IP) into the animal, or intravenously (IV) into the animal. Single or multiple injections are used. The size of the tumor is subsequently measured to determine the effect of the enzyme on tumor growth and survival. A decrease in size of the tumors is indicative of anti-tumor activity of the hexosaminidase. Preferably, administration of the hexosaminidase results in a significant size reduction of the tumor. More preferably, the hexosaminidase eliminates the tumor from the SCID mouse. Preferably, such animals will remain free from tumors in the future.
One million LNCaP prostate cancer cells were injected into SCID mice. After the tumors grew to a size of between 0.3-0.6 cm^3, 5 units of Streptomyces chitinase was injected intratumorally, intraperitoneally and intravenously, in separate mice. […] All untreated animals died within 3 months.

[16] = 5 units intratumorally, intraperitoneally and intravenously, in separate mice

COc1cccc2c1C(=O)c1c(O)c3c(c(O)c1C2=O)C[C@@](O)(C(=O)CO)C[C@@H]3O[C@H]1C[C@H](N)[C@H](O)[C@H](C)O1 [doxorubicin, reference compound]
anti-tumor effectiveness [1]: generally ineffective | outcome of mice evaluated ([1]; 5 mg per kilogram IP on days 5, 7 and 9): eventually died from drug toxicity or progressive tumor growth | course of tumor growth ([1]; 3 intraperitoneal injections of 5 mg/kg (maximum tolerated dose)): growth attenuation followed by a resumption of progressive growth

chitinase
period over which human colon cancer was effectively eliminated from the animals [2]: 2 days | maximum blood levels relative to those found in IV injection ([3]; IP injection): less than half | time at which maximum blood levels were reached ([3]; IP injection): 2 to 3 min | time until which blood levels tapered off ([3]; IP injection): 40 min | time until which maximum levels remained ([3]; IP injection): 7 to 8 min | time at which little chitinase was left in the blood ([3]; IV injection): 20 min | levels of chitinase in the blood immediately after injection ([3]; IV injection, within 1 min.): very high levels | maximum blood levels relative to blood levels found after IP injection ([3]; SC injection): a third | time at which maximum blood levels were reached ([3]; SC injection): 2 to 3 min | time until which blood levels tapered off ([3]; SC injection): 40 min | change of lymphoma size (Large cell lymphoma): reduced in size | elimination of bladder tumors compared with human colon cancer of Example 2 [4]: as effectively eliminated | cellular damage after chitinase treatment (lung cancer cells): significant cellular damage | elimination of lung tumors compared with human colon cancer of Example 2 ([5]; 5 units injected into the tumor (day 1), SCID mice): as effectively eliminated | tumor size after chitinase treatment ([5]; 10 days after a single injection of 5 units, FIG. 3b): substantially reduced in size | dose dependence of anti-tumor activity ([1]; additional studies, increased with increasing dosages): dose dependent | regression of established tumors ([1]; intraperitoneal injection of 5 Units on day 5 and day 6): complete tumor regression | day until after which detectable growth of 24 JK sarcoma tumor cells was inhibited ([1]; single IP injection of 5 units five days after cell injection, FIG. 5): > 12 days | regression of established tumors ([1]; single intraperitoneal injection of 10 Units on day 5): complete tumor regression | cellular damage after chitinase treatment (melanoma cells): significant cellular damage | elimination of breast tumors compared with human colon cancer of Example 2 [6]: as effectively eliminated | effect on the viability of the normal mouse spleen cells [7]: little effect | cellular damage after chitinase treatment [8]: significant cellular damage | cellular damage after chitinase treatment [9]: significant cellular damage | period over which prostate tumors were eliminated from the mouse [10]: 7 days | elimination of melanomas compared with human colon cancer of Example 2 (Malignant melanoma): as effectively eliminated | systemic toxicity [11]: without significant systemic toxicity | concentrations at which chitinase efficiently kills the tumor cells [12]: 0.025 to 0.05 units of chitinase per ml of culture medium | elimination of Merkel cell tumors [13]: eliminated | elimination of ovarian tumors compared with human colon cancer of Example 2 [14]: as effectively eliminated | elimination of fibrosarcomas compared with human colon cancer of Example 2 (fibrosarcoma): as effectively eliminated | histological staining of tumors compared to saline control tumors [15, 16]: extensive cellular damage and morphological changes | time after injection at which tumor necrosis was visible [15, 16]: within hours | tumor regression [15, 16]: complete tumor regression | survival of treated animals without tumor recurrence ([15]; 5 units, all untreated animals died within 3 months): more than one year | development of resistance of the tumors to the enzyme ([15]; additional studies): no indication of development of resistance | tumor elimination with an additional administration of chitinase after the first ([15]; additional studies): more rapidly eliminated
